Read-outs that look alike come from different tables or passages of the source.
Tests used:
THP-1 TNFα release = experiment: LPS-stimulation of THP-1 cells, TNF-α release (ELISA); assay type: cell-based; settings: Homo sapiens; LPS-stimulated THP-1 cells, IC50 range; read-out: Inhibitor activity versus THP-1 TNFα release
Procedure: THP-1 cells were plated in 100 μl at a density of 4×10^4 cells/well in V-bottomed 96 well tissue culture treated plates and incubated at 37° C. in 5% CO2 for 16 hours. 2 hours after the addition of the inhibitor in 100 μl of tissue culture media, the cells were stimulated with LPS (E. coli strain 005:B5, Sigma) at a final concentration of 1 μg/ml and incubated at 37° C. in 5% CO2 for 6 hours. TNF-α levels were measured from cell-free supernatants by sandwich ELISA (R&D Systems #QTA00B).

[1] = test system: human whole blood TNFα release; experiment: LPS-stimulation of human whole blood, TNF-α release (ELISA); assay type: cell-based; settings: LPS-stimulated human whole blood, IC50 range; read-out: Inhibitor activity versus human whole blood TNFα release
Procedure: Whole blood was taken by venous puncture using heparinised vacutainers (Becton Dickinson) and diluted in an equal volume of RPMI1640 tissue culture media (Sigma). 100 μl was plated in V-bottomed 96 well tissue culture treated plates. 2 hours after the addition of the inhibitor in 100 μl of RPMI1640 media, the blood was stimulated with LPS (E coli strain 005:B5, Sigma) at a final concentration of 100 ng/ml and incubated at 37° C. in 5% CO2 for 6 hours. TNF-α levels were measured from cell-free supernatants by sandwich ELISA (R&D Systems #QTA00B).

p38 MAP Kinase a = biological target: T1, p38 MAP Kinase a (Homo sapiens, UniProt Q16539); experiment: p38 MAP Kinase activity, radiometric filter-binding assay (Upstate); assay type: biochemical; settings: IC50 range; read-out: Inhibitor activity versus p38 MAPKa
T1 construct: purchased Upstate (Dundee UK)
Procedure: The ability of compounds to inhibit p38 MAP a Kinase activity was measured in an assay performed by Upstate (Dundee UK). In a final reaction volume of 25 μL, p38 MAP Kinase a (5-10 mU) is incubated with 25 mM Tris pH 7.5, 0.002 mMEGTA, 0.33 mg/mL myelin basic protein, 10 mM MgAcetate and [g-33p-ATP] (specific activity approx. 500 cpm/pmol, concentration as required). The reaction is initiated by the addition of the MgATP mix. After incubation for 40 minutes at room temperature, the reaction is stopped by the addition of 5 μL of a 3% phosphoric acid solution. 10 μL of the reaction is then spotted onto a P30 filtermat and washed three times for 5 minutes in 75 mM phosphoric acid and once in methanol prior to drying and scintillation counting.
Duplicate data points are generated from a 1/3 log dilution series of a stock solution in DMSO. Nine dilutions steps are made from a top concentration of 10 μM and a ‘no compound’ blank is included. The standard radiometric filter-binding assay is performed at an ATP concentration at, or close to, the Km. Data from scintillation counts are collected and subjected to free-fit analysis by Prism software. From the curve generated, the concentration giving 50% inhibition is determined and reported.

[2] = test system: phosphorylation of MAPKAP-2 in HUT 78 cells; experiment: p38 MAP kinase cellular assay: inhibition of phosphorylation of MAPKAP-2 in HUT 78 cells; assay type: cell-based; settings: for Ratio IC50s in HUT 78 to U937 cells: HUT 78 IC50 / U937 IC50; for IC50: Homo sapiens, HuT78, Table 3, HUT 78 non-monocytic cell line
Procedure: (§1) U937 or HUT78 cells were plated in RPMI 1640, and were incubated at 37° C., 5% CO2 for 18 hours. 10 mM stocks of compounds were diluted media/0.1% DMSO to give a log or semi-log dilution series. The wells for ‘no treatment’ and ‘anisomycin’ were treated with 0.1% DMSO only. The cells were incubated at 37° C., 5% CO2 for a further 4 hours. Anisomycin was added to all wells except ‘no treatment’ at a final concentration of 10 μM. The cells were incubated at 37° C., 5% CO2 for 30 minutes before harvest. Plates were stood on ice whilst harvesting, and all following steps were carried out at 4° C. The cells were pelleted at 1000 rpm for 10 minutes at 4° C., the media aspirated, and the pellet washed with cold PBS. The pellets were lysed in 120 μl of SDS lysis buffer (62.5 mM Tris, pH 6.8, 2% SDS, 10% glycerol, 50 mM DTT, with protease inhibitors and phosphatase inhibitors added according to the manufacturer's recommendations). After 30 minutes on ice, the samples were sonicated for 5 seconds before centrifugation at 13,000 rpm 4° C. for 10 minutes to remove cell debris. 10 μl of the resulting gel samples were loaded per lane on NOVEX 4-12% Bis-Tris MOPS gels. Membranes from western transfer of gels were blotted with anti-phospho MAPKAP2, anti-phospho HSP27 and anti GAPDH according to the manufacturer's instructions. Signal was visualised using HRP-linked anti-rabbit or anti-mouse antibodies, ECL reagent and ECL film. IC50 values for the various compounds were visualised from the resulting photographic images, using both band-shift and signal intensity.

U937 cells = experiment: Cell accumulation of the acid in U937 cells; assay type: cell-based; settings: U937 monocytic versus non-monocytic cell line
[3] = test system: phosphorylation of MAPKAP-2 in U937 cells; experiment: p38 MAP kinase cellular assay: inhibition of phosphorylation of MAPKAP-2 in U937 cells; assay type: cell-based; settings: for IC50: Homo sapiens, U-937; for Ratio cell IC50s to enzyme IC50: U937 cell IC50 / P38 enzyme IC50
Procedure: as §1

[4] = Table 2, U937 cells, read-out: Inhibition of phosphorylation of MAPKAP-2 in U937 cells (IC50)
[5] = Table 3, U937 monocyte cell line, read-out: Inhibition of phosphorylation of MAPKAP-2 in U937 cells (IC50, nM) (monocyte cell line)

T1 sequence (Q16539 whole entry): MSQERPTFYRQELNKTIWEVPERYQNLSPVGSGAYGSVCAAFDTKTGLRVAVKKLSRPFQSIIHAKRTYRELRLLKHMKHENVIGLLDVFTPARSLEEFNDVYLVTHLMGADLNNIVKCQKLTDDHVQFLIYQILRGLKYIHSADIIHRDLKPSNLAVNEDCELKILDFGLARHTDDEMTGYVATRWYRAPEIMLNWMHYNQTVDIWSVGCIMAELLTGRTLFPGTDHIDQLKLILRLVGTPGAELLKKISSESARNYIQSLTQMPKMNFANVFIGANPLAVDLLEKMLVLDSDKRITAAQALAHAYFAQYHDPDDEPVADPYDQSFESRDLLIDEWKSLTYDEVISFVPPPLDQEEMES

Row | SMILES | IC50 (THP-1 TNFα release) [nM] | IC50 [1] [nM] | IC50 (p38 MAP Kinase a) [nM] | further results
1 | CC(C)(NC(=O)Cc1ccc(-n2c(N)c(C(=O)c3ccc(F)cc3F)ccc2=O)cc1)C(=O)OC1CCCC1 [Example 3, Cyclopentyl N-({4-[6-amino-5-(2,4-difluorobenzoyl)-2-oxopyridin-1(2H)-yl]phenyl}acetyl)-2-methylalaninate] | 100 to 1000 | > 1000 | < 100 | 
2 | CC[C@](C)(NCCc1ccc(-n2c(N)c(C(=O)c3ccc(F)cc3F)ccc2=O)cc1)C(=O)O [Example 14, N-(2-{4-[6-amino-5-(2,4-difluorobenzoyl)-2-oxopyridin-1(2H)-yl]phenyl}ethyl)-L-isovaline] |  |  | < 100 | 
3 | CC(C)(NCCc1ccc(-n2c(N)c(C(=O)c3ccc(F)cc3F)ccc2=O)cc1)C(=O)OC1CC2CCC1C2 (centres unmarked) [Example 8, bicyclo[2.2.1]hept-2-yl N-(2-{4-[6-amino-5-(2,4-difluorobenzoyl)-2-oxopyridin-1(2H)-yl]phenyl}ethyl)-2-methylalaninate] | < 100 | > 1000 |  | 
4 | CC(C)(C)OC(=O)C(C)(C)NCCCOc1cc(F)c(-n2c(N)c(C(=O)c3ccc(F)cc3F)ccc2=O)c(F)c1 [Example 10, tert-butyl N-(3-{4-[6-amino-5-(2,4-difluorobenzoyl)-2-oxopyridin-1(2H)-yl]-3,5-difluorophenoxy}propyl)-2-methylalaninate] | < 100 | > 1000 | < 100 | 
5 | CC(C)(NCCc1ccc(-n2c(N)c(C(=O)c3ccc(F)cc3F)ccc2=O)cc1)C(=O)OC1CCCC1 [Example 1, Cyclopentyl N-(2-{4-[6-amino-5-(2,4-difluorobenzoyl)-2-oxopyridin-1(2H)-yl]phenyl}ethyl)-2-methylalaninate] | < 100 | 100 to 1000 | < 100 | Ratio IC50s in HUT 78 to U937 cells [2]: 100; IC50 [2]: 1000 nM; Accumulation of the acid in cells (in words) (U937 cells): only accumulates in the monocytic cell line; IC50 [3, 4]: 10 nM; IC50 [3, 5]: 10 nM; Ratio cell IC50s to enzyme IC50 [3]: 0.2; Potency in cells relative to the parent compound lacking the esterase motif ([3]; U937 cells): 30 times
6 | CC(C)(NCCCOc1cc(F)c(-n2c(N)c(C(=O)c3ccc(F)cc3F)ccc2=O)c(F)c1)C(=O)OC1CCCC1 [Example 9, Cyclopentyl N-(3-{4-[6-amino-5-(2,4-difluorobenzoyl)-2-oxopyridin-1(2H)-yl]-3,5-difluorophenoxy}propyl)-2-methylalaninate] | < 100 | 100 to 1000 | < 100 | 
7 | CC(C)(NCCc1cc(F)c(-n2c(N)c(C(=O)c3ccc(F)cc3F)ccc2=O)c(F)c1)C(=O)OC1CCCC1 [Example 2, Cyclopentyl N-(2-{4-[6-amino-5-(2,4-difluorobenzoyl)-2-oxopyridin-1(2H)-yl]-3,5-difluorophenyl}ethyl)-2-methylalaninate] | < 100 | < 100 | < 100 | 
8 | Nc1c(C(=O)c2ccc(F)cc2F)ccc(=O)n1-c1ccc(CCNC2(C(=O)OC3CCCC3)CCCC2)cc1 [Example 4, Cyclopentyl 1-[(2-{4-[6-amino-5-(2,4-difluorobenzoyl)-2-oxopyridin-1(2H)-yl]phenyl}ethyl)amino]cyclopentanecarboxylate] | < 100 | > 1000 | < 100 | 
9 | CC(C)(NC(=O)Cc1ccc(-n2c(N)c(C(=O)c3ccc(F)cc3F)ccc2=O)cc1)C(=O)O [Example 13] |  |  | 100 to 1000 | 
10 | CC(C)(NCCc1cc(F)c(-n2c(N)c(C(=O)c3ccc(F)cc3F)ccc2=O)c(F)c1)C(=O)O [Example 12, N-(2-{4-[6-amino-5-(2,4-difluorobenzoyl)-2-oxopyridin-1(2H)-yl]-3,5-difluorophenyl}ethyl)-2-methylalanine] |  |  | < 100 | 
11 | CC(C)(NCCc1ccc(-n2c(N)c(C(=O)c3ccc(F)cc3F)ccc2=O)cc1)C(=O)OC1Cc2ccccc2C1 [Example 7, 2,3-dihydro-1H-inden-2-yl N-(2-{4-[6-amino-5-(2,4-difluorobenzoyl)-2-oxopyridin-1(2H)-yl]phenyl}ethyl)-2-methylalaninate] | < 100 | > 1000 | 100 to 1000 | 
12 | Nc1c(C(=O)c2ccc(F)cc2F)ccc(=O)n1-c1ccc(CCNC2(C(=O)O)CCCC2)cc1 [Example 15, 1-[(2-{4-[6-amino-5-(2,4-difluorobenzoyl)-2-oxopyridin-1(2H)-yl]phenyl}ethyl)amino]cyclopentanecarboxylic acid] |  |  | 100 to 1000 | 
13 | CC(C)(NCCCOc1cc(F)c(-n2c(N)c(C(=O)c3ccc(F)cc3F)ccc2=O)c(F)c1)C(=O)O [Example 16, N-(3-{4-[6-amino-5-(2,4-difluorobenzoyl)-2-oxopyridin-1(2H)-yl]-3,5-difluorophenoxy}propyl)-2-methylalanine] |  |  | < 100 | 
14 | CC[C@](C)(NCCc1ccc(-n2c(N)c(C(=O)c3ccc(F)cc3F)ccc2=O)cc1)C(=O)OC1CCCC1 [Example 5, Cyclopentyl N-(2-{4-[6-amino-5-(2,4-difluorobenzoyl)-2-oxopyridin-1(2H)-yl]phenyl}ethyl)-L-isovalinate] | < 100 | > 1000 | 100 to 1000 | 
15 | CC[C@](C)(NCCc1ccc(-n2c(N)c(C(=O)c3ccc(F)cc3F)ccc2=O)cc1)C(=O)OC(C)(C)C [Example 6, tert-butyl N-(2-{4-[6-amino-5-(2,4-difluorobenzoyl)-2-oxopyridin-1(2H)-yl]phenyl}ethyl)-L-isovalinate] | 100 to 1000 |  | 100 to 1000 | 
16 | CC(C)(NCCc1ccc(-n2c(N)c(C(=O)c3ccc(F)cc3F)ccc2=O)cc1)C(=O)O [Example 11, N-(2-{4-[6-amino-5-(2,4-difluorobenzoyl)-2-oxopyridin-1(2H)yl]phenyl}ethyl)-2-methylalanine] |  |  | < 100 | 
17 | Nc1c(C(=O)c2ccc(F)cc2F)ccc(=O)n1-c1ccccc1 [Parent Compound I, reference compound] |  |  |  | Ratio IC50s in HUT 78 to U937 cells [2]: 1.5; Ratio IC50s in HUT 78 to U937 cells ([2]; listed as compound I): equipotent; IC50 [2]: 450 nM; IC50 [3, 4]: 300 nM; IC50 [3, 5]: 300 nM; Ratio cell IC50s to enzyme IC50 [3]: 6

Source: US8778953B2, “Inhibitors of P38 map kinase” (Chroma Therapeutics Ltd., priority 2008, dated 2014)
